Measurements as given in patent US11236102B2, “Oxabicycloheptane prodrugs” (Lixte Biotechnology, Inc., priority 2015, dated 2022).
Values joined by “and” are separate entries in the source; they are usually repeats but may differ in a detail not shown here. Equal entries are not always repeated. Where two headings read alike, the source gives them in different places.

Assay: in vivo
Set-up: species or system SD rats
Method: 105 was dissolved in 4% NaHCO3 in saline for IV administration. The detailed procedure of dosing solution preparation was presented in Appendix I.
Thirteen (13) animals were placed on the study. The animals in IV arm were free access to food and water. One extra animal was used for blank liver and plasma generation (5 mL per animal). The resulting blank liver and plasma was then applied to the development of bioanalytical method and sample bioanalysis for the entire study.
The IV injection was conducted via foot dorsal vein. Animals were free access to food and water before dose.
The animal is restrained manually. Approximately 150 μL of blood/time point is collected into sodium heparin tube via cardiac puncture for terminal bleeding (anesthetized under carbon dioxide). Blood sample will be put on ice and centrifuged to obtain plasma sample (2000 g, 5 min under 4° C.) within 10 minutes.
The animal will be euthanized with carbon dioxide inhalation. Open abdominal cavity with scissor to expose internal organs. Hold the carcass in an upright position and allow the organs to fall forward. Cut the connective tissues and remove the organs. Then the organs are rinsed with cold saline, dried on filtrate paper, placed into a screw-top tube and weighed, snap frozen by placing into dry-ice immediately.
Plasma and liver samples were stored at approximately −80° C. until analysis. The backup samples will be discarded after three weeks after in-life completion unless requested. The unused dosing solutions will be discarded within three weeks after completion of the study
Software: The PK parameters were determined by non-compartmental model of non-compartmental analysis tool, Pharsight Phoenix WinNonlin® 6.2 software.
Concentration data within 80%-120% of LLOQ was considered within normal instrumental variation and presented in the results. Terminal t1/2 calculation: Time points were automatic selected by “best fit” model for terminal half life estimation as the first option. Manual selection was applied when “best fit” could not well define the terminal phase.

[1] = IV 1 mg/kg, 0.25 hr, individual, 1 mg/kg
[2] = IV 1 mg/kg, 1 hr, individual, 1 mg/kg
[3] = IV 1 mg/kg, 2 hr, individual, 1 mg/kg

CCN1CCN(C(=O)C2C3CCC(O3)C2C(=O)O)CC1 (stereo not drawn) [Compound 105]
AUC(0-last) in liver (105, IV 1 mg/kg, mean): 1019 ng·h/g | Liver-plasma concentration ratio of 105 [1]: 0.646 | liver concentration of 105 [1]: 988 ng/g | plasma concentration of 105 [1]: 1530 ng/mL | Liver-plasma concentration ratio of 105 [2]: 1.96 | liver concentration of 105 [2]: 446 ng/g | plasma concentration of 105 [2]: 228 ng/mL | Liver-plasma concentration ratio of 105 [3]: 2.19 and 6.09 | liver concentration of 105 [3]: 131 ng/g | plasma concentration of 105 [3]: 45.2 ng/mL and 21.5 ng/mL | liver concentration of 105 (IV 1 mg/kg, 6 hr, individual): BQL | plasma concentration of 105 (IV 1 mg/kg, 6 hr, individual): BQL | liver concentration of 105 (IV 1 mg/kg, 6 hr, mean): BQL | plasma concentration of 105 (IV 1 mg/kg, 6 hr, mean): BQL | liver concentration of 105 (IV 1 mg/kg, 10 hr, individual): BQL | plasma concentration of 105 (IV 1 mg/kg, 10 hr, individual): BQL | liver concentration of 105 (IV 1 mg/kg, 10 hr, mean): BQL | plasma concentration of 105 (IV 1 mg/kg, 10 hr, mean): BQL | liver concentration of 105 (IV 1 mg/kg, 24 hr, individual): BQL | plasma concentration of 105 (IV 1 mg/kg, 24 hr, individual): BQL | liver concentration of 105 (IV 1 mg/kg, 24 hr, mean): BQL | plasma concentration of 105 (IV 1 mg/kg, 24 hr, mean): BQL | Kp at 0.25 h (male, SD, rat, in vivo, iv, 1 mg/kg, IV 1 mg/kg, 0.25 hr, individual, read-out: Liver-plasma concentration ratio of 105): 0.554 | concentration at 0.25 hr (male, SD, rat, in vivo, iv, 1 mg/kg, IV 1 mg/kg, 0.25 hr, individual, read-out: liver concentration of 105): 1070 ng/g | concentration at 0.25 hr (male, SD, rat, in vivo, iv, 1 mg/kg, IV 1 mg/kg, 0.25 hr, individual, read-out: plasma concentration of 105): 1930 ng/mL | Kp at 0.25 h (male, SD, rat, in vivo, iv, 1 mg/kg, IV 1 mg/kg, 0.25 hr, mean, read-out: Liver-plasma concentration ratio of 105): 0.6 | concentration at 0.25 hr (male, SD, rat, in vivo, iv, 1 mg/kg, IV 1 mg/kg, 0.25 hr, mean, read-out: liver concentration of 105): 1030 ng/g | concentration at 0.25 hr (male, SD, rat, in vivo, iv, 1 mg/kg, IV 1 mg/kg, 0.25 hr, mean, read-out: plasma concentration of 105): 1730 ng/mL | Kp at 1 h (male, SD, rat, in vivo, iv, 1 mg/kg, IV 1 mg/kg, 1 hr, individual, read-out: Liver-plasma concentration ratio of 105): 2.19 | concentration at 1 h (male, SD, rat, in vivo, iv, 1 mg/kg, IV 1 mg/kg, 1 hr, individual, read-out: liver concentration of 105): 576 ng/g | concentration at 1 hr (male, SD, rat, in vivo, iv, 1 mg/kg, IV 1 mg/kg, 1 hr, individual, read-out: plasma concentration of 105): 263 ng/mL | Kp at 1 h (male, SD, rat, in vivo, iv, 1 mg/kg, IV 1 mg/kg, 1 hr, mean, read-out: Liver-plasma concentration ratio of 105): 2.07 | concentration at 1 h (male, SD, rat, in vivo, iv, 1 mg/kg, IV 1 mg/kg, 1 hr, mean, read-out: liver concentration of 105): 511 ng/g | concentration at 1 hr (male, SD, rat, in vivo, iv, 1 mg/kg, IV 1 mg/kg, 1 hr, mean, read-out: plasma concentration of 105): 246 ng/mL | concentration at 2 h (male, SD, rat, in vivo, iv, 1 mg/kg, IV 1 mg/kg, 2 hr, individual, read-out: liver concentration of 105): 99.2 ng/g | Kp at 2 h (male, SD, rat, in vivo, iv, 1 mg/kg, IV 1 mg/kg, 2 hr, mean, read-out: Liver-plasma concentration ratio of 105): 4.14 | concentration at 2 h (male, SD, rat, in vivo, iv, 1 mg/kg, IV 1 mg/kg, 2 hr, mean, read-out: liver concentration of 105): 115 ng/g | concentration at 2 hr (male, SD, rat, in vivo, iv, 1 mg/kg, IV 1 mg/kg, 2 hr, mean, read-out: plasma concentration of 105): 33.4 ng/mL | AUC(0-t) (male, SD, rat, in vivo, 105 in liver, IV 1 mg/kg, mean, read-out: AUC(0-t)): 1020 | Cmax (male, SD, rat, in vivo, 105 in liver, IV 1 mg/kg, mean, read-out: Cmax): 1030 ng/mL | MRT inf (male, SD, rat, in vivo, 105 in plasma, IV 1 mg/kg, mean): 19.7 min | Cmax (male, Sprague-Dawley, rat, in vivo, 105, IV 1 mg/kg, mean, read-out: Cmax in liver): 1030 ng/g | Tmax (male, Sprague-Dawley, rat, in vivo, 105 in liver, IV 1 mg/kg, mean): 15 min | clearance (male, Sprague-Dawley, rat, in vivo, 105 in plasma, IV 1 mg/kg, mean): 10.9 mL/min/kg | AUC(0-t) (male, Sprague-Dawley, rat, in vivo, 105 in plasma, IV 1 mg/kg, mean, read-out: AUC(0-t) (AUClast)): 1510 ng·h/mL | AUC(0-inf) (male, Sprague-Dawley, rat, in vivo, 105 in plasma, IV 1 mg/kg, mean, read-out: AUC(0-∞) (AUCINF)): 1530 ng·h/mL | Vd (male, Sprague-Dawley, rat, in vivo, 105 in plasma, IV 1 mg/kg, mean, read-out: Vss): 0.215 L/kg | half-life (male, Sprague-Dawley, rat, in vivo, 105 in plasma, IV 1 mg/kg, mean, read-out: t1/2z (terminal half life) (converted)): 18.5 min
